Experimental data published in patent publication EP2112152A1, “Dihydropteridinones as Plk Inhibitors” (GPC Biotech AG, priority 2008, dated 2009).

Assays:
Type in all cases: cell-based
[1] = test system: HCT 116; experiment: SRB cell proliferation assay, HCT 116; settings: Homo sapiens, HCT-116, 72 h, 72 hours, SRB assay; read-out: CELLULAR IC50 HCT 116
Protocol: (§1) We observed the surprising finding that compounds of the invention were useful in inhibiting proliferation of tumor cell lines (see Table 3).
(§2) Cells were exposed to the test compounds at various concentrations appropriate to determine an IC50 for 72 hours. Cell proliferation was measured using the SRB assay according to Shekan et al (J Natl Cancer Inst (1990) 82, 1107-112) in order to estimate the IC50 values shown in Table 3. Briefly, cells were plated in 96 well dishes 24 hours prior to compound addition at the densities specified in Table 5.1. The assay was terminated with the addition of cold TCA to a final concentration of 10% after growth medium has been removed and the plates were incubated over night at 4°C. The plates were then washed 5 times with water and 100µl of a Sulforhodamine B solution (4%) was added to each well. The plates were then incubated for 10 minutes at room temperature before removal of unbound dye by washing with 1% acetic acid. The bound dye was solubilised with 10 mM Trizma base and the absorbance read at OD520.
(§3) Inhibitory activity of the compounds (IC) was calculated as % inhibition of cell proliferation compared to cells treated with the solvent (DMSO).
(§4) Table 8.1: 18-Cell Line Panel

[2] = test system: HT-29; experiment: SRB cell proliferation assay, HT-29; settings: Homo sapiens, HT-29, 72 h, 72 hours, SRB assay; read-out: CELLULAR IC50 HT-29
Protocol: as §1, §2, §3, §4

[3] = test system: IMR-90; experiment: SRB cell proliferation assay, IMR-90; settings: Homo sapiens, 72 hours, SRB assay, slow cycling cell line, read-out: CELLULAR IC50 IMR-90
Protocol: as §1, §2, §3, §4

[4] = molecular target: Plk1 (Homo sapiens, UniProt P53350); experiment: Cellular Plk1 kinase activity: nucleophosmin (B23) Ser4 phosphorylation in HCT116 cells (MSD electrochemiluminescence); design: host or cells: HCT116; settings: 100 ng/ml nocodazole, 4 hours after compound addition, read-out: Biochemical IC50 Nucleophosmin assay
Sequence of Plk1 (P53350 whole entry, species assumed): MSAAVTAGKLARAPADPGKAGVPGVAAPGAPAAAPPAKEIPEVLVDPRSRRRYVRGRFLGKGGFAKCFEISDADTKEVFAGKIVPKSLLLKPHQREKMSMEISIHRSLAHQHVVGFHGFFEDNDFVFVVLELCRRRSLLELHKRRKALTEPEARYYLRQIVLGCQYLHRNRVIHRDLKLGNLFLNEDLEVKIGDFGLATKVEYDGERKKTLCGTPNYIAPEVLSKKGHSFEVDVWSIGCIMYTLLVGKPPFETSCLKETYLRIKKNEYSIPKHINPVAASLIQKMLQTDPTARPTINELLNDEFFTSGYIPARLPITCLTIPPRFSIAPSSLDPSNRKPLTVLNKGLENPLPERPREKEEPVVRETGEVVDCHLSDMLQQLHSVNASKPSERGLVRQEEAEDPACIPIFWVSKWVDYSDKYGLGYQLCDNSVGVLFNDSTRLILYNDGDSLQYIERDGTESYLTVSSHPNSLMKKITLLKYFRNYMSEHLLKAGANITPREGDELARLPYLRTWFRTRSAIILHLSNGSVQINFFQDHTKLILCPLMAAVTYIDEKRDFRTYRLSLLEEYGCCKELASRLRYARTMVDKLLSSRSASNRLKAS
Protocol: We observed the surprising finding that compounds of the invention were able to penetrate cell membranes and retained their activity as Plk1 inhibitors against native Plk1 expressed within living cancer cells.
Cellular Plk1 kinase activity was measured by quantification of nucleophosmin (B23) Ser4 phosphorylation in a cancer cell line. Nucleophosmin (B23) Ser4 is phosphorylated by Plk1, and this phosphorylation can be specifically detected by cross-reactivity of a phospho-Mek1/2 antibody that is able to recognizes a mitotic-specific phosphorylated form of nucleophosmin (B23) in a nocodazole dependent way (Zhang, H., Shi, X., Paddon, H., Hampong, M., Dai, W., and Pelech, S. (2004) B23/Nuleophosmin Serin 4 Phosphorylation Mediates Mitotic Functions of Polo-like Kinase 1. J. Biol. Chem., 279(34), 35726-35734).
Briefly, HCT116 cells (ATCC, Order No. CCL-247) were plated in 96 well dishes 24 hours prior to nocodazole treatment at 25 000 cells per well. Cells were then treated with 100 ng/ml nocodazole (Sigma-Aldrich, # M1404). 20 hours after nocodazole treatment, cells were exposed to the test compounds at various concentrations appropriate to determine an IC50. 4 hours after compound addition, medium was carefully removed and 120 µl of Complete Tris Lysis Buffer (R60TX; MSD, Gaithersburg MD) was added to each well. Samples were then stored at -20°C.
The level of nucleophosmin (B23) Ser4 phosphorylation in these cell lysis samples was estimated by electrochemiluminescence detection using the Meso Scale Discovery ("MSD") Technology Platform (MSD, Gaithersburg MD). The protocol used was as recommended by the manufacturer with the use of a phospho-Mek1/2 antibody (Cell Signalling, #9121) as primary antibody, and is as follows.
The cell lysates were thawed at room temperature and 40 µl were incubated on 96-well MULTI-ARRAY High Bind plates (L11XB; MSD) for 1.5 - 2 hours at room temperature. The supernatants were then removed and 150 µl of a 5% (w/v) solution of Blocker A (R93AA; MSD) in Tris Wash Buffer (R61TX; MSD) were added to each well. The plates were then incubated for 1 hour at room temperature before removal of the Blocker A solution and washed 4 times with 200 µl Tris Wash Buffer. 25 µl primary antibody (anti-phospho-MEK1/2, Cell Signalling, #9121, rabbit polyclonal), diluted 1:250 in a 1% (w/v) solution of Blocker A in Tris Wash Buffer, were added to each well. The plates were then incubated for 1 hour at room temperature before removal of the antibody solution and washed 4 times with 200 µl Tris Wash Buffer. Then, 25 µl of labelled secondary antibody (SULFO-TAG Goat Anti-Rabbit IgGAntibody (R32AB; MSD), diluted 1:500 in a 1% (w/v) solution of Blocker A in Tris Wash Buffer) were added to each well. The plates were then incubated for 1 hour at room temperature before removal of the antibody solution and washed 4 times with 200 µl Tris Wash Buffer. Then, […] of 1x Read Buffer T (R92TC; MSD) were carefully added to each well and the plates were quantitatively detected for each well with a SECTOR™ Imager 6000 (MSD).
Inhibitory activity of the compounds (IC) was calculated as % inhibition of nucleophosmin (B23) Ser4 phosphorylation compared to cells not treated with nocodazole.

Row | Structure (SMILES) | IC50 [1] | IC50 [2] | IC50 [3] | IC50 [4]
1 | CCC1C(=O)N(C)c2cnc(Nc3ccc(C(=O)NC4CCN(C)CC4)cc3OC)nc2N1N(C)CC1CCCC1 (stereo not shown) [Compound 27, 4-[8-(Cyclopentylmethyl-methyl-amino)-7-ethyl-5-methyl-6-oxo-5,6,7,8-tetrahydro-pteridin-2-ylamino]-3-methoxy-N-(1-methyl-piperidin-4-yl)-benzamide] | < 1000 nM | < 1000 nM | > 1000 nM | < 100 nM
2 | CCC1C(=O)N(C)c2cnc(Nc3ccc(C(=O)NCC4CCN(CC)CC4)cc3OC)nc2N1NC (stereo not shown) [Compound 32, 4-(7-Ethyl-5-methyl-8-methylamino-6-oxo-5,6,7,8-tetrahydro-pteridin-2-ylamino)-N-(1-ethyl-piperidin-4-ylmethyl)-3-methoxy-benzamide] | < 1000 nM | < 1000 nM | > 1000 nM | < 500 nM
3 | CCC1C(=O)N(C)c2cnc(Nc3ccc(C(=O)NC4CCN(C)CC4)cc3OC)nc2N1NC (stereo not shown) [Compound 30, 4-(7-Ethyl-5-methyl-8-methylamino-6-oxo-5,6,7,8-tetrahydro-pteridin-2-ylamino)-3-methoxy-N-(1-methyl-piperidin-4-yl)-benzamide] | < 1000 nM | < 1000 nM | > 1000 nM | < 100 nM
4 | CCC1C(=O)N(C)c2cnc(Nc3ccc(C(=O)NC4CCN(C)CC4)cc3OC)nc2N1N(C)CC1CCC1 (stereo not shown) [Compound 33, 4-[8-(Cyclobutylmethyl-methyl-amino)-7-ethyl-5-methyl-6-oxo-5,6,7,8-tetrahydro-pteridin-2-ylamino]-3-methoxy-N-(1-methyl-piperidin-4-yl)-benzamide] | < 1000 nM | < 1000 nM | > 1000 nM | < 100 nM
5 | CCC1C(=O)N(C)c2cnc(Nc3ccc(C(=O)NC4CCN(C)CC4)cc3OC)nc2N1N(C)CC(C)C (stereo not shown) [Compound 22, 4-[7-Ethyl-8-(isobutyl-methyl-amino)-5-methyl-6-oxo-5,6,7,8-tetrahydro-pteridin-2-ylamino]-3-methoxy-N-(1-methyl-piperidin-4-yl)-benzamide] | < 1000 nM | < 1000 nM | > 1000 nM | < 100 nM
6 | CCC1C(=O)N(C)c2cnc(Nc3ccc(C(=O)N[C@H]4CC[C@H](N5CCN(CC6CC6)CC5)CC4)cc3OC)nc2N1N(C)Cc1ccccc1 (relative stereo) [Compound 16, 4-[8-(Benzyl-methyl-amino)-7-ethyl-5-methyl-6-oxo-5,6,7,8-tetrahydro-pteridin-2-ylamino]-N-[trans-4-(4-cyclopropylmethyl-piperazin-1-yl)-cyclohexyl]-3-methoxy-benzamide] | < 1000 nM | < 1000 nM | > 1000 nM | < 100 nM
7 | CCC1C(=O)N(C)c2cnc(Nc3ccc(C(=O)NC4CCN(C)CC4)cc3OC)nc2N1N(C)CC1CC1 (stereo not shown) [Compound 17, 4-[8-(Cyclopropylmethyl-methyl-amino)-7-ethyl-5-methyl-6-oxo-5,6,7,8-tetrahydro-pteridin-2-ylamino]-3-methoxy-N-(1-methyl-piperidin-4-yl)-benzamide] | < 1000 nM | < 1000 nM | > 1000 nM | < 500 nM
